The values below come from patent US10935552B2, “Aie luminogens for visualization and treatment of cancer” (THE HONG KONG UNIVERSITY OF SCIENCE AND TECHNOLOGY, priority 2015, dated 2021).

In the test the test system is mitochondria. The experiment in a line: Co-staining with commercial organelle trackers in HeLa cells (mitochondria staining). It is filed as cell-based, human. Conditions: HeLa, 200 nM with Mito-tracker red/Lyso-tracker red/DAPI, 20 mins. As to the method:
The HeLa cells were grown overnight on a 35 mm petri dish with a cover slip. Then the HeLa cells were stained with 200 nM TPE-IQ-2O and Mito-tracker red (50 nM)/Lyso-tracker red (50 nM)/DAPI (500 nM) for 20 mins.
The DMSO solution of DPA-IQ was almost non-emissive while the aggregation state powder of this material emits strong green luminescence upon the UV excitation.
The commercially available MitoTracker Red FM is co-stained as a control together with Naph-IQ.

On to `CCC[n+]1cc2ccc(C(=C(c3ccc(OC)cc3)c3ccc(OC)cc3)c3ccccc3)cc2c(-c2ccccc2)c1-c1ccccc1` [TPE-IQ-2O, 6-(2,2-bis(4-methoxyphenyl)-1-phenylvinyl)-3,4-diphenyl-2-propylisoquinolin-2-ium], for which the Organelle selectivity result is recorded as “can selectively target the mitochondria”.
